The term Ki denotes a dissociation constant, usually derived from enzyme kinetics or from competition with a known ligand. A low value points to higher affinity.

Molecules are shown by their SMILES.

In test [1] the target is T1, trypanothione reductase (Leishmania infantum, UniProt A4HSF7). In words: X-ray crystal structure at […] Å. The test is classed as biochemical.
Test [2] has as its target T1, trypanothione reductase. In words: NADPH oxidation kinetics at […] nm, Lineweaver–Burk and Dixon plots. The test is classed as biochemical.

T1 sequence (A4HSF7 1-491): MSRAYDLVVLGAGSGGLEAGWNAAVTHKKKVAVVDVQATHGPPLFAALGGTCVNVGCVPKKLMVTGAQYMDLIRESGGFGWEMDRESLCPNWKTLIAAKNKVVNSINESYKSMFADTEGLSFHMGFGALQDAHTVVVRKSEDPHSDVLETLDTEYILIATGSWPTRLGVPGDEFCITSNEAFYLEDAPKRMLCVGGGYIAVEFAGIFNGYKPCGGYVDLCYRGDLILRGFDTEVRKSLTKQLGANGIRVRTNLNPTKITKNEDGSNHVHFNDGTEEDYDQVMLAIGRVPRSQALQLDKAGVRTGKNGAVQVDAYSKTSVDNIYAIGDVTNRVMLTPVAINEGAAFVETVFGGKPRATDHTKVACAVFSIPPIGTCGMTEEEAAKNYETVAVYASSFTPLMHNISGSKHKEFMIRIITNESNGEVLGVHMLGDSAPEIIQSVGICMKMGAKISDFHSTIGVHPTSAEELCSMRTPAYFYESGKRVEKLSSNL

As for `CC[P](CC)(CC)=[Au][S][C@@H]1O[C@H](COC(C)=O)[C@@H](OC(C)=O)[C@H](OC(C)=O)[C@H]1OC(C)=O` [AF, auranofin], in test [1], the affinity corresponds to a Ki of 155 ± 35 nM.
In test [2], `CCP(CC)CC.[Au+].[Cl-]` [CTPAu, Chloro(triethylphosphine)gold(I)] showed a Ki of 18 ± 7 nM.

The values are drawn from PMC3266496 (2011).
